Laboratory results taken from the supplement of paper PMC10307832.

Assays:
Test in all cases: relative viability (nuclei count vs DMSO), 5 days (fraction); higher = more cells survive
[1] = compound: O=C(/C=C/c1cccnc1)NCCCCC1CCN(C(=O)c2ccccc2)CC1 [Daporinad] + CC(=O)c1c(C)c2cnc(Nc3ccc(N4CCNCC4)cn3)nc2n(C2CCCC2)c1=O [Palbociclib] (partner 0.5 µM)
In short: (§1)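 A single step with final 0.05% Triton X-100, 1% formaldehyde and 1 ug/ml Hoechst fixed the cells and stained nuclei 5 days after treatment. Lung cancer cell lines in 1536-well plates had been treated by pin tool the day after seeding with one drug alone or a fixed anchor-drug dose plus five library-drug doses (not always all listed) in √10 steps, and nuclei were counted on 4× images. Relative viability is the ratio of nuclei in treated wells to nuclei in vehicle wells, taken as the median of duplicate plates.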

[2] = compound: O=C(/C=C/c1cccnc1)NCCCCC1CCN(C(=O)c2ccccc2)CC1 [Daporinad] + CC1(C)CCC(c2ccc(Cl)cc2)=C(CN2CCN(c3ccc(C(=O)NS(=O)(=O)c4ccc(N[C@H](CCN5CCOCC5)CSc5ccccc5)c(S(=O)(=O)C(F)(F)F)c4)cc3)CC2)C1 [Navitoclax] (partner 0.5 µM)
In short: as §1

[3] = compound: O=C(/C=C/c1cccnc1)NCCCCC1CCN(C(=O)c2ccccc2)CC1 [Daporinad] + C[C@]1(O)C[C@@H](c2nc(-c3ccc4ccc(-c5ccccc5)nc4c3)c3c(N)nccn32)C1 [Linsitinib] (partner 1 µM)
In short: as §1

[4] = compound: COc1cc(Nc2ncc(F)c(Nc3ccc4c(n3)NC(=O)C(C)(C)O4)n2)cc(OC)c1OC [R406] + Cc1cc(Nc2cc(N3CCN(C)CC3)nc(Sc3ccc(NC(=O)C4CC4)cc3)n2)n[nH]1 [Tozasertib] (partner 0.1 µM)
In short: as §1

Cell Line | relative viability ([1]; first compound 0.0005 µM) | relative viability ([1]; first compound 0.001581 µM) | relative viability ([1]; first compound 0.005 µM) | relative viability ([1]; first compound 0.01581 µM) | relative viability ([2]; first compound 0.0005 µM) | relative viability ([2]; first compound 0.001581 µM) | relative viability ([2]; first compound 0.005 µM) | relative viability ([2]; first compound 0.01581 µM) | relative viability ([3]; first compound 0.0005 µM) | relative viability ([3]; first compound 0.001581 µM) | relative viability ([3]; first compound 0.005 µM) | relative viability ([3]; first compound 0.01581 µM) | relative viability ([4]; first compound 0.08 µM) | relative viability ([4]; first compound 0.253 µM) | relative viability ([4]; first compound 0.8 µM) | relative viability ([4]; first compound 2.53 µM) | relative viability ([4]; first compound 8 µM)
NCI-H1792 | 0.637 | 0.694 | 0.654 | 0.681 | 0.702 | 0.722 | 0.534 | 0.621 | 0.392 | 0.486 | 0.359 | 0.686 |  |  |  |  | 
ChaGo-K-1 | 0.914 | 0.908 | 0.786 | 0.327 | 1.02 | 0.58 | 0.845 | 0.492 |  |  |  |  | 0.224 | 0.203 | 0.251 | 0.218 | 0.164
NCI-H522 | 1.06 | 1.06 | 0.746 | 0.908 |  |  |  |  |  |  |  |  | 0.467 | 0.527 | 0.562 | 0.582 | 0.433
NCI-H1299 |  |  |  |  | 1.06 | 1.07 | 1.11 | 1.07 | 0.986 | 1.14 | 0.975 | 0.941 |  |  |  |  | 
NCI-H1650 | 0.321 | 0.413 | 0.415 | 0.334 | 1.21 | 1.44 | 1.28 | 0.501 |  |  |  |  | 0.394 | 0.449 | 0.461 | 0.164 | 0.185
SW 900 | 0.432 |  | 0.573 | 0.501 |  |  |  |  |  |  |  |  | 0.49 | 0.584 | 0.459 | 0.515 | 0.44
NCI-H2170 | 0.351 | 0.39 | 0.394 | 0.381 | 0.619 | 0.561 | 0.637 | 0.825 |  |  |  |  | 0.758 | 0.703 | 0.708 | 0.615 | 0.632
NCI-H358 | 0.111 | 0.135 | 0.154 | 0.153 |  |  |  |  | 0.64 | 0.822 | 0.882 | 0.791 | 0.107 | 0.116 | 0.081 | 0.109 | 0.0818
A549 |  |  |  |  | 1.3 | 1.21 | 1.12 | 0.814 | 0.535 | 0.604 | 0.516 | 0.627 |  |  |  |  | 
NCI-H1563 |  |  |  |  |  |  |  |  | 1.29 | 1.21 | 1.07 | 0.739 |  |  |  |  | 
ABC-1 | 0.87 | 0.558 | 0.793 | 0.904 |  |  |  |  | 0.887 | 1.04 | 0.882 | 0.792 | 0.167 | 0.16 | 0.162 | 0.158 | 0.14
LCLC-103H | 0.526 | 0.556 | 0.503 | 0.518 |  |  |  |  | 1.01 | 1.2 | 1.16 | 1.21 | 0.524 | 0.495 | 0.569 | 0.503 | 0.376
